Source: patent publication US4877803A, “Bis-dioxopiperazine derivatives and pharmaceutical compositions containing the same” (Zenyaku Kogyo Kabushiki Kaisha, priority 1985, dated 1989)

What was measured:
[1] = tested on: P388 lymphocytic leukemia; assay: Increase in life span on tumor-transplanted mouse (P388); format: in vivo, mouse (CDF1); conditions: intraperitoneal, 1 day after transplantation and on 5th day
Procedure: (II) Increase in Life Span on Tumor-transplanted Mouse: The treated group to which the compound of the present invention was administered consisted of seven mice, while the control group consisted of ten mice. Six weeks old male mice (CDF1, 25±2 g of body weight) were employed as host animals.
Tumor cells (1.0×10^6) of P388 lymphocytic leukemia were transplanted intraperitoneally into each mouse. The treatment was effected one day after the transplantation and on 5th day by administering prescribed dose of each test compound intraperitoneally to the mice.
Antitumor activity of the test compound was evaluated by the rate of increase in life span (ILS) which was calculated with the following formula. [formula] T': median survival time of treated mice C': median survival time of control mice

[2] = tested on: P388 lymphocytic leukemia cells; assay: Growth inhibition of tumor cells in vitro; format: cell-based; conditions: Mus musculus, 48 hours at 37° C., read-out: IC50 (50% inhibitory concentration of cell growth)
Procedure: (I) Growth Inhibition of Tumor Cells in Vitro:
Tumor cells were collected aseptically with capillary tube from ascites in CDF1 male mice transplanted intraperitoneally with 1×10^6 cells of P388 lymphocytic leukemia 5 days Before. Cell suspension was prepared at 5×10^4 cells/0.5 ml in a RPMI1640 medium supplemented with 10% fetal calf serum, Kanamycin (0.1 mg/ml) and 2-hydroxyethyldisulfide (0.01 mm). Each sample was dissolved or suspended in the medium at a concentration of 1×10^-1 -1×10^-5 mM/ml.
A test tube with Molton stopper loosely involving 0.5 ml each of the cell suspension and the sample suspension was kept for 48 hours at 37° C. in an incubator supplied with air containing 5% carbon dioxide. Then, after addition of 4 ml of 0.25% trypsin solution, the tube was shaken for 5 minutes at 37° C. The cells harvested therefrom was counted by using of a Coulter Counter and the inhibition of cell growth was calculated by the following formula: [formula] T: number of cells in the culture containing test compound. C: number of cells in the culture of control
50% Inhibitory concentration of cell growth (IC50) was calculated based on the inhibition in various concentrations of test compound and is shown in Table I.

[3] = Acute toxicity test in mice; conditions: mouse, in vivo, ip; male ICR mice, intraperitoneal, observed for 14 days, Litchfield-Wilcoxon method
Procedure: The acute toxicity of the compounds of the present invention was examined by the following test.
The test group to which the compound of the present invention was administered consisted of ten mice. Five weeks old male mice (ICR, 25±2 g of body weight) were employed as test animals.

## C[C@H]([C@H](C)N1CC(=O)N(CN2CCSCC2)C(=O)C1)N1CC(=O)N(CN2CCSCC2)C(=O)C1 [(2), meso-2,3-bis(4-thiomorpholinomethyl-3,5-dioxopiperazin-1-yl)butane]
[1]; daily dose 1.8 mg/kg
  ILS (rate of increase in life span): > 194%
[2]
  IC50: 230 nM

## C[C@H]([C@H](C)N1CC(=O)N(CN2CCCCC2)C(=O)C1)N1CC(=O)N(CN2CCCCC2)C(=O)C1 [(4), meso-2,3-bis(4-piperoidinomethyl-3,5-dioxopiperazin-1-yl)butane]
[2]
  IC50: 47 nM

## CC1CC(C)CN(CN2C(=O)CN([C@H](C)[C@H](C)N3CC(=O)N(CN4CC(C)CC(C)C4)C(=O)C3)CC2=O)C1 (stereo partly drawn) [(5), meso-2,3-bis[4-(3,5-dimethylpiperidinomethyl)-3,5-dioxopiperazin-1-yl]butane]
[2]
  IC50: 12 nM

## O=C1CN(CCN2CC(=O)N(CN3CCOCC3)C(=O)C2)CC(=O)N1CN1CCOCC1 [(A), 1,2-bis(4-morpholinomethyl-3,5-dioxopiperazin-1-yl)ethane]
[1]; daily dose 3.0 mg/kg
  ILS (rate of increase in life span): 2%
[1]; daily dose 100 mg/kg (adequate dose)
  ILS (rate of increase in life span): 60%
[2]
  IC50: 2400 nM

## CC(CN1CC(=O)N(CN2CCOCC2)C(=O)C1)N1CC(=O)N(CN2CCOCC2)C(=O)C1 (racemic) [(B), dl-1,2-bis(4-morpholinomethyl-3,5-dioxopiperazin-1-yl)propane]
[1]; daily dose 3.0 mg/kg
  ILS (rate of increase in life span): 1%
[1]; daily dose 200 mg/kg (adequate dose)
  ILS (rate of increase in life span): 47%
[2]
  IC50: 1600 nM

## C[C@H]([C@H](C)N1CC(=O)N(CN2CCOCC2)C(=O)C1)N1CC(=O)N(CN2CCOCC2)C(=O)C1 [(1), meso-2,3-bis(4-morpholinomethyl-3,5-dioxopiperazin-1-yl)butane]
[1]; daily dose 3.0 mg/kg
  ILS (rate of increase in life span): 165%
[3]
  LD50 at 336 h: 10.7 mg/kg
[2]
  IC50: 61 nM

## C[C@H]([C@H](C)N1CC(=O)N(CN2CCN(c3ccccc3)CC2)C(=O)C1)N1CC(=O)N(CN2CCN(c3ccccc3)CC2)C(=O)C1 [(3), meso-2,3-bis[4-(N-phenylpiperazinomethyl)-3,5-dioxopiperazin-1-yl]butane]
[1]; daily dose 3.4 mg/kg
  ILS (rate of increase in life span): 78%
[2]
  IC50: 22 nM
